Measured values as given in patent US4211779A, “7α-Methoxy substituted cephalosporins” (Shionogi & Co., Ltd., priority 1976, dated 1980).
≈ marks a conversion by molar mass, not a printed value.

Legend:
Type in all cases: cell-based
[1] = system: Klebsilla pneumoniae No. 363; test: Antibacterial activity (MIC), Klebsiella pneumoniae No. 363
Procedure: (§1) Free acids found in Examples 2 to 5 are dissolved in dilute aqueous sodium hydrogencarbonate solution to yield the corresponding aqueous sodium salts solutions.

Escherichia coli No. 73 = test: Antibacterial activity (MIC), Escherichia coli No. 73
Procedure: as §1

[2] = system: gram negative bacteria resistant to cephalosporins; test: antibacterial activity against gram negative bacteria resistant to cephalosporins; conditions: compared with the compound wherein Y is hydrogen
[3] = NO.363, Klebsiella pneumoniae No. 363, innoculum size 10^6
[4] = NO.363, Klebsiella pneumoniae No. 363, innoculum size 10^8

SMILES	MIC [1, 3] [µg/mL]	MIC [1, 4] [µg/mL]	MIC (Escherichia coli No. 73; innoculum size 10^6) [µg/mL]	MIC (Escherichia coli No. 73; innoculum size 10^8) [µg/mL]	antibacterial activity against gram negative bacteria resistant to cephalosporins [2]
CCN1CCN(C(=O)NC(C(=O)N[C@@H]2C(=O)N3C(C(=O)O)=C(CSc4nnnn4C)CS[C@H]23)c2ccc(O)cc2)C(=O)C1=O (stereo partly shown) [Y H]	100 (≈ 155 µM)	> 100	25 (≈ 38.7 µM)	> 100	–
CCN1CCN(C(=O)NC(C(=O)NC2(OC)C(=O)N3C(C(=O)O)=C(CSc4nnnn4C)CSC32)c2ccc(O)cc2)C(=O)C1=O (stereo not shown) [Y OCH3]	0.8 (≈ 1.18 µM)	1.6 (≈ 2.37 µM)	1.6 (≈ 2.37 µM)	3.1 (≈ 4.59 µM)	more potent antibacterial activity
CO[C@@]1(NC(=O)Cc2cccs2)C(=O)N2C(C(=O)O)=C(COC(N)=O)CS[C@@H]21 [cefoxitin]	1.6 (≈ 3.74 µM)	6.3 (≈ 14.7 µM)	12.5 (≈ 29.2 µM)	12.5 (≈ 29.2 µM)	–
